These results are taken from PMC7845544 (Frontiers in Pharmacology, 2021).

The target of one data set is T1, hFSHR (Homo sapiens, UniProt P23945).
T1 construct: expressed in transfected cells
T1 sequence (P23945 18-695): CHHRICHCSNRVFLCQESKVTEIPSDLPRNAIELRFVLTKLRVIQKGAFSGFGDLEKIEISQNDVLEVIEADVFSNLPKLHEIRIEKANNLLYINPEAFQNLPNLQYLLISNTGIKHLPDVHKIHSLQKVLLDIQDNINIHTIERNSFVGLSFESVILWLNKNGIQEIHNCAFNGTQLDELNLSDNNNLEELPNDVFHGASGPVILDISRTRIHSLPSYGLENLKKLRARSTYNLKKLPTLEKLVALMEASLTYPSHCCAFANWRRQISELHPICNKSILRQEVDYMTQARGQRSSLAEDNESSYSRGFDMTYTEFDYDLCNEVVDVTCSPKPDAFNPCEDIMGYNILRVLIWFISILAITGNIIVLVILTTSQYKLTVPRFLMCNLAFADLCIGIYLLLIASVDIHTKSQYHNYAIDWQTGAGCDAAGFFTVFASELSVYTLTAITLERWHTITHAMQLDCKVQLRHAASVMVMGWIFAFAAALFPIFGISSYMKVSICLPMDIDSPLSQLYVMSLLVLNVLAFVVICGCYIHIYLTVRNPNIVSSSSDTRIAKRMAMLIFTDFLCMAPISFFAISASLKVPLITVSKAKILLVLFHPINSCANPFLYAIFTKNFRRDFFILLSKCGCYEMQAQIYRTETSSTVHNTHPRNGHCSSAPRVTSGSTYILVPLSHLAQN
Description: cAMP (HTRF) in CHO cells transfected with hFSHR. It counts as cell-based. The conditions noted are these: for EC50: compounds in presence of EC20 ligand (Figure 1 legend); for EC50 / % Response, CHO-hFSHR: mean ± SEM; for % Response, CHO-hFSHR: maximal cAMP vs maximal response of protein ligand FSH. How it is done:
(§1) Chinese hamster ovary (CHO) cells transfected with hFSHR, hLHR or hTSHR were grown as described previously ([Kelton et al., 1992]; [Persani et al., 1993]; [Yu et al., 2014]). In brief, CHO-hFSHR and CHO-hTSHR were maintained in DMEM/F12 + 10% FBS in T150 culture flasks. The cells were cultured until they reached 70–80% confluence (three days) and were then used for assays or passaged. CHO-hLHR ([van de Lagemaat et al., 2009]; [Sriraman et al., 2014]) was cultured in MEM alpha (++) +10% FBS and G418, and passaged every three days. CHO-hFSHR or −hLHR or −hTSR cells (2,500/well) were plated in 5 µL of phenol red free DMEM/F12 + 1% FBS in 384 well solid white low volume plates (Greiner 784075) by Multidrop. […] The plates were incubated at 37°C for 1 h. After the incubation period, cAMP was measured by HTRF® (homogeneous time-resolved fluorescence) assay (CisBio, Bedford, MA). In brief, conditioned media were incubated with cryptate-labeled cAMP antibody and d2-labeled cAMP in lysis buffer for 1 h. Free cAMP produced by cells competes with cAMP-d2 for binding to the anti-cAMP cryptate. An increase in cellular cAMP leads to a decrease in fluorescence resonance energy transfer, which is detectable as a decrease in the emission at 665 nm, measured by Envision fluorescence reader (PerkinElmer, Waltham, MA). The readout was calculated fluorescence ratio (665/620 nm). Values given in percent (%) indicate the percent response at a certain concentration of agonist relative to the maximum response of the protein ligand standard.

A further data set deals with T2, hLH/CGR (Homo sapiens, UniProt P22888).
T2 construct: expressed in transfected cells
T2 sequence (P22888 27-699): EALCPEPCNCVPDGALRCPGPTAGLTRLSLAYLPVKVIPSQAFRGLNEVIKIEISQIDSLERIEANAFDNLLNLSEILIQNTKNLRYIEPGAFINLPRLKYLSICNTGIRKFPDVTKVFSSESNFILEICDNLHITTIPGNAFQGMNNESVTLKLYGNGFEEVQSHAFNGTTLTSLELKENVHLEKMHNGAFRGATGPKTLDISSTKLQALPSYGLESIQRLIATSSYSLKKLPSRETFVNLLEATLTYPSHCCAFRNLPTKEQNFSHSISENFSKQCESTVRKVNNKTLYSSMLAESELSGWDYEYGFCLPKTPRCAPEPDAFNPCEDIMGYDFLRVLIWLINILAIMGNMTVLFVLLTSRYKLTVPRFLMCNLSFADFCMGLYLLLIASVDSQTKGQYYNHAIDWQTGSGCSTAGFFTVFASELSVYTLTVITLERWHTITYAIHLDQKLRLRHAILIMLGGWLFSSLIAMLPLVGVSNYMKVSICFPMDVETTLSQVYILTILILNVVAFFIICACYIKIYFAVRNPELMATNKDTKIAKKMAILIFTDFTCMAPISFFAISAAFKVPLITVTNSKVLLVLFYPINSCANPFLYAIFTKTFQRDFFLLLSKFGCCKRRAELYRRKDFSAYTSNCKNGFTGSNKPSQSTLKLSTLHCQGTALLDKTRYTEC
Description: cAMP (HTRF) in CHO cells transfected with hLH/CGR. In kind it is cell-based. The conditions noted are these: for EC50: compounds in presence of EC20 ligand (Figure 1 legend); for EC50 / % Response, CHO-hLH/CGR: mean ± SEM; for % Response, CHO-hLH/CGR: maximal cAMP vs maximal response of hCG. How it is done:
as §1
For orientation: In TR-FRET formats the signal depends on donor and acceptor labels being close together.

The conditions of data set [1]: mouse, microsomes.
The nature of another data set: Mouse pharmacokinetics. It counts as in vivo. The conditions noted are these: 5 mg/kg; for Mouse PK F%: oral bioavailability.
The subject of the next data set is human granulosa cells. Nature of the data set: Estradiol production from pooled human granulosa-lutein cells (Boston IVF). In kind it is cell-based. The conditions noted are these: for EC50: pooled granulosa-lutein cells from two patients (Figure 4A), read-out: EC50, 17β-estradiol production; for maximal 17β-estradiol response: three patients (Figure 4B). The procedure: Human granulosa cells were prepared from the spent follicular fluid of women undergoing IVF treatment at Boston IVF Center (Waltham, MA, United States) and at Family Fertility Center (Baylor College of Medicine, Houston, TX, United States) following methods previously established ([Breckwoldt et al., 1996]; [Amsterdam et al., 2003]). Institutional review board approval and informed consent from the patients were obtained before collecting the follicular fluid samples. In brief, red blood cells (RBCs) in the follicular aspirate were lyzed using RBC lysis buffer (Quality Biological Inc., Gaithersburg, MD, United States), and washed extensively with PBS and DMEM/F12 containing 5% FBS, fungizone, and the antibiotics penicillin (100 IU/ml) and streptomycin (100 μg/ml). Subsequently, cells from the aspirate were plated in T75 flasks, cultured for 7 days with fresh media being replaced every other day. At the end of the culture period, cells were released from the flask by trypsin and transferred to 96-well plates (5,000 cells/well, Greiner Bio-One). Following 48 h of culture, media in culture wells was replaced with serum free media containing 0.1% BSA and 10^−7 M androstenedione. Following 24 h of serum starvation, cells were stimulated with fresh media (0.1% BSA, 10^−7 M androstenedione) with FSH or compound for 48 h. Supernatant was collected and stored at −80C for determination of estradiol by ELISA.

The target of another data set is CYP3A4 (Homo sapiens, UniProt P08684). Description: CYP time dependent inhibition. In kind it is in vitro ADME.
CYP3A4, sequence (P08684 whole entry): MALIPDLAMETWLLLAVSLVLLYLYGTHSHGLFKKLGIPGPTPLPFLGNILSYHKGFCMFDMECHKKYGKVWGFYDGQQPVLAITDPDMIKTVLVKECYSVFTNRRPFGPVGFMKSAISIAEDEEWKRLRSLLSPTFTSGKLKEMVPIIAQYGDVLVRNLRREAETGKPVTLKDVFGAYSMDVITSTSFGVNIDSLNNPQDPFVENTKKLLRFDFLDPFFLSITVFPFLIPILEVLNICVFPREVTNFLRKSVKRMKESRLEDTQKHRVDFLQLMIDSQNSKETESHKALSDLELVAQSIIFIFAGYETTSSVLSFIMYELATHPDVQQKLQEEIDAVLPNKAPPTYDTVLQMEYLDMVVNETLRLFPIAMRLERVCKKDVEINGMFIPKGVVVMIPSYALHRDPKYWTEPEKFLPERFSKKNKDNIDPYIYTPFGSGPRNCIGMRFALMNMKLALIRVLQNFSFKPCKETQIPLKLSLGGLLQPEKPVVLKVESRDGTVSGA
The conditions of data set [2]: microsomes.
The conditions of data set [3]: microsomes. The source holds these as a separate data set.

Structures are written as SMILES.

On to `COc1cc(C(N)=O)cc(-c2cc3c(cc2OC)OCc2c(C(=O)N(C)C(C)(C)C)nn(-c4cc(Cl)cc(Cl)c4)c2-3)n1` [TOP5668], for which the “fold more potent than TOP5300 in hFSHR-AA activity” value on hFSHR (CHO-hFSHR) is given as 3-4 fold. At hFSHR, the concentration giving a half-maximal response (EC50) – broadly, the midpoint of the concentration-response curve – turned out to be 2.2 nM and the “% Response, CHO-hFSHR” value was found to be 100.75 ± 0.51%. In addition, the “Ratio of EC50 LHR/FSHR” value at hLH/CGR (CHO assays) is 80. Also, on hLH/CGR, the EC50 was determined as 176 nM and the “% Response, CHO-hLH/CGR” value is 96.64 ± 0.61%. The “Clint, mice” value in data set [1] turned out to be 10 µl/min/mg protein. Also, in “Mouse pharmacokinetics”, the “Mouse PK AUC” value was 2,494 ng*h/ml, the “Mouse PK Cmax” value was found to be 312 ng/mL, the “Mouse PK T1/2” value is 3.57 h and the “Mouse PK F%” value is given as 26%. For the same molecule, in the data set on human granulosa cells (pooled cells from two patients (Figure 4A)), the “fold more potent than TOP5300, 17β-estradiol production” value was 30 fold. For the same molecule, the EC50 with human granulosa cells was 15 nM. For the same molecule, in the data set on human granulosa cells (pooled human granulosa cells, second culture (Figure 4B)), the “fold greater maximal estradiol response than rec-hFSH” value is reported as “approximately 7 fold”. For the same molecule, the “potency shift to the left of TOP5300” value with human granulosa cells (second culture, pooled cells from three patients (Figure 4B)) is ~100 fold. For the same molecule, the “maximal 17β-estradiol response” value with human granulosa cells (second culture) came out at 200 ng/mL. Besides, the “CYP TDI (3A4)” value at CYP3A4 is “Negative”. Moreover, the “Clint, monkey” value in data set [2] is recorded as 117 µl/min/mg protein. In addition, the “Clint, human” value in data set [3] is 20 µl/min/mg protein.

As to `COc1cc2c(cc1-c1cnn(CCO)c1)-c1c(c(C(=O)N(C)C(C)(C)C)nn1-c1cc(Cl)cc(Cl)c1)CO2` [TOP5300], at hFSHR, the EC50 was found to be 9.72 nM and the “% Response, CHO-hFSHR” value is 98.4 ± 0.31%. At hLH/CGR, the EC50 was found to be 56.7 nM and the “% Response, CHO-hLH/CGR” value is 95.68 ± 0.37%. Also, the “Clint, mice” value in data set [1] is 19 µl/min/mg protein. In the data set “Mouse pharmacokinetics”, the “Mouse PK AUC” value is on record as 5,533 ng*h/ml, the “Mouse PK Cmax” value was 1,133 ng/ml, the “Mouse PK T1/2” value is listed as 2.5 h and the “Mouse PK F%” value stood at 22%. In addition, the EC50 in the data set on human granulosa cells is 474 nM. In the data set with human granulosa cells (second culture), the “maximal 17β-estradiol response” value was determined as 200 ng/mL. In addition, at CYP3A4, the “CYP TDI (3A4)” value is on record as “Negative”. Moreover, in data set [2], the “Clint, monkey” value amounted to 165 µl/min/mg protein. Also, the “Clint, human” value in data set [3] came out at 37 µl/min/mg protein.
